Measurements taken from article PMC10121968, “Fosgonimeton, a Novel Positive Modulator of the HGF/MET System, Promotes Neurotrophic and Procognitive Effects in Models of Dementia” (Neurotherapeutics, 2022).
Non-standard residues stand in square brackets, D forms with d. Residues, ends and D or L forms follow the SMILES beside them. *: point of attachment. Hexanoyl = CCCCCC(=O)*; Ahx = NCCCCCC(=O)O

Key:
[1] = Fosgonimeton CNS distribution in mice; format: in vivo, mouse; settings: 5 mg/kg fosgonimeton IV, whole brain, 0.16 h
Description: Four C57BL/6 mice—2 males and 2 females—were treated with 5 mg/kg fosgonimeton via intravenous (IV) injection. At 0.16 h after dosing, animals were humanely killed and perfused with normal saline. The whole brain was collected and homogenized before determination of fosgonimeton and fosgo-AM tissue penetration by LC/MS/MS.

[2] = Plasma PK in rats after SC injection; format: in vivo, rat
Description: Four male rats were treated with 10 mg/kg fosgo-AM in DMSO via SC injection. Blood was serially collected at 0.08, 0.25, 0.5, 1, 2, and 4 h after dosing. Plasma was obtained by centrifugation with 2% disodium ethylenediaminetetraacetic acid (EDTA) as an anticoagulant. Plasma samples were precipitated with acetonitrile containing internal standard, and the concentration of fosgo-AM was determined by LC/MS/MS.
This study was conducted as described in the “Fosgo-AM PK in Rats” section with the following changes: animals were given 12 mg/kg fosgonimeton in saline with 0.1% glycine via SC injection, and a dose-linear correction was applied to normalize the dose to 10 mg/kg for comparison with the fosgo-AM study. Sample concentrations of both fosgonimeton and fosgo-AM were determined.

Cmax, ng/g ± SEM [1]: 7.9 ± 2.3 ng/g
fosgo-AM maximum concentration (Cmax) in plasma ([2]; after SC delivery of fosgonimeton (12 mg/kg, normalized to 10 mg/kg), after metabolism): 1198 ng/mL
fosgo-AM maximum concentration (Cmax) in plasma ([2]; after direct SC delivery of fosgo-AM 10 mg/kg): 329 ng/mL
SMILES: CCCCCC(=O)N[C@@H](Cc1ccc(O)cc1)C(=O)N[C@H](C(=O)NCCCCCC(N)=O)[C@@H](C)CC [fosgo-AM] (Hexanoyl-Tyr-Ile-[Ahx]-NH2)
